Calls of active or inactive are those of the source. The calls are words filed in the database; no cut-off is given here. Residues, ends and D or L forms follow the SMILES beside them.
Experiments:
Disks large homolog 4 [1] = molecular target: T1, Disks large homolog 4 (Homo sapiens, UniProt P78352); experiment: Displacement of Cy5-GluN2B from N-terminal His-tagged full length human PSD-95alpha PDZ2 domain (155 to 249 residues) without exon 4b expressed in Escherichia coli BL21(DE3)pLysS by fluorescence polarization assay
Target sequence in this assay (P78352 whole entry, the tested form may be a part): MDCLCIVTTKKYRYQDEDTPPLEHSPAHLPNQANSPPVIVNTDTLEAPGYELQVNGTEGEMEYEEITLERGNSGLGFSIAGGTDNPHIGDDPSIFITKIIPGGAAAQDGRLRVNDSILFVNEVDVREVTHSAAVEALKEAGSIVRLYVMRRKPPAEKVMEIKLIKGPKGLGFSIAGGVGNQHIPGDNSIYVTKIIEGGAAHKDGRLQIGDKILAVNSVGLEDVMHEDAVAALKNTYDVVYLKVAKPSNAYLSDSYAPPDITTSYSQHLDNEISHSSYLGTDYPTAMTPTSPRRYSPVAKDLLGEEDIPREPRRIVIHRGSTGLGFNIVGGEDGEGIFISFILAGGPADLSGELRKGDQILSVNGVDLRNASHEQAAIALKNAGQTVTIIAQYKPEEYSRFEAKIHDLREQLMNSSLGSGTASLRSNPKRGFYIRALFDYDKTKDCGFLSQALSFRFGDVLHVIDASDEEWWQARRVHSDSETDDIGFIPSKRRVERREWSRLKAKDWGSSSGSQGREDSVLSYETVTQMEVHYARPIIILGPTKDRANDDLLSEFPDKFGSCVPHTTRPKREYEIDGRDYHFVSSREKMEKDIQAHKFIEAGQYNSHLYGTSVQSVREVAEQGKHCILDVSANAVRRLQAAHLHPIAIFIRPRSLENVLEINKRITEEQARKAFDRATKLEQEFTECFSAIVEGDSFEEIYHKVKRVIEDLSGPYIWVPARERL

Disks large homolog 4 [2] = molecular target: T1, Disks large homolog 4; experiment: Potency index, ratio of indole 1 Ki to compound Ki for N-terminal His-tagged full length human PSD-95alpha PDZ2 domain (155 to 249 residues) without exon 4b expressed in Escherichia coli BL21(DE3)pLysS
Target sequence in this assay (P78352 whole entry, looked up, the tested form may be a part): as the sequence (P78352 whole entry, the tested form may be a part) above

Disks large homolog 4 [3] = molecular target: T1, Disks large homolog 4; experiment: Displacement of Cy5-GluN2B from N-terminal His-tagged human full length PSD-95alpha PDZ1 domain (61 to 151 residues) without exon 4b expressed in Escherichia coli BL21(DE3)pLysS by fluorescence polarization assay
Target sequence in this assay (P78352 whole entry, the tested form may be a part): as above

Disks large homolog 4 [4] = molecular target: T1, Disks large homolog 4; experiment: Displacement of Cy5-CRIPT from N-terminal His-tagged human full length PSD-95alpha PDZ3 domain (309 to 401 residues) without exon 4b expressed in Escherichia coli BL21(DE3)pLysS by fluorescence polarization assay
Target sequence in this assay (P78352 whole entry, looked up, the tested form may be a part): as the sequence (P78352 whole entry, the tested form may be a part) above

Disks large homolog 4 [5] = molecular target: T1, Disks large homolog 4; experiment: Ratio of Kd for N-terminal His-tagged full length human PSD-95alpha PDZ2 domain (155 to 249 residues) without exon 4b expressed in Escherichia coli BL21(DE3)pLysS by […] method to Ki for N-terminal His-tagged full length human PSD-95alpha PDZ2 domain (155 to 249 residues) without exon 4b expressed in Escherichia coli BL21(DE3)pLysS by fluorescence polarization assay
Target sequence in this assay (P78352 whole entry, looked up, the tested form may be a part): as the sequence (P78352 whole entry, the tested form may be a part) above

Disks large homolog 4 [6] = molecular target: T1, Disks large homolog 4; experiment: Binding affinity to N-terminal His-tagged full length human PSD-95alpha PDZ2 domain (155 to 249 residues) without exon 4b expressed in Escherichia coli BL21(DE3)pLysS by […] method
Target sequence in this assay (P78352 whole entry, the tested form may be a part): as above

Disks large homolog 4 [7] = molecular target: Disks large homolog 4 (Rattus norvegicus, UniProt P31016); experiment: Inhibition of rat PSD-95 PDZ1 domain interaction with mouse 5HT2A receptor after 18 hrs by pull down assay
Chain of Disks large homolog 4 (Rattus norvegicus, UniProt P31016) (P31016 whole entry, the tested form may be a part): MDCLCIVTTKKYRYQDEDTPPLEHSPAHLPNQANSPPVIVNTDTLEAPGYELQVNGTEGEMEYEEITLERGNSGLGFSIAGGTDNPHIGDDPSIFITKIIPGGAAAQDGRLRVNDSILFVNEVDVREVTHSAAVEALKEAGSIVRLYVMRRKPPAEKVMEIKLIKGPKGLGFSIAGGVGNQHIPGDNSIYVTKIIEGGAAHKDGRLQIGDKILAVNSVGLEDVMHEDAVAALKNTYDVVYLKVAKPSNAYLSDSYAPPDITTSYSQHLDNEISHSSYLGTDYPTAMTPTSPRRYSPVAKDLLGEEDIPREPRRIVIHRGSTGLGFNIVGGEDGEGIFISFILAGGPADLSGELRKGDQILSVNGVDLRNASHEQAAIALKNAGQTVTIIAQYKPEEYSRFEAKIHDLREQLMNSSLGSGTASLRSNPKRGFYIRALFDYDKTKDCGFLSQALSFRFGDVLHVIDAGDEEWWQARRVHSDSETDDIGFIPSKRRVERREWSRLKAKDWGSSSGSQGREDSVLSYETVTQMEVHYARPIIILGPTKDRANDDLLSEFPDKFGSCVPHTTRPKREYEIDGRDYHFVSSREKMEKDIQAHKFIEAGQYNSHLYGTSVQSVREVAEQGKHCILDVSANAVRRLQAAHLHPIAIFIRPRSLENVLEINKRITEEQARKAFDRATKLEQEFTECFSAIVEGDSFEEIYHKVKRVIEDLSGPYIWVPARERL

CC(C)[C@@H](C(=O)O)n1cc([C@H](C)NC(=O)[C@@H](N)[C@@H](C)O)nn1
Ki (Disks large homolog 4 [1]): > 500 µM

CC(C)[C@H](NC(=O)[C@H](C)n1cc([C@@H](N)[C@@H](C)O)nn1)C(=O)O
Ratio Ki (Disks large homolog 4 [2]): 2 | Ki (Disks large homolog 4 [3]): > 500 µM | Ki (Disks large homolog 4 [1]): 289 µM | inhibition (Disks large homolog 4 [4]): inactive | Ratio (Disks large homolog 4 [5]): 2 | Kd (Disks large homolog 4 [6]): 598 µM

CC(C)[C@H](NC(=O)[C@H](C)NC(=O)[C@@H](N)[C@@H](C)O)C(=O)O (H-Thr-Ala-Val-OH)
Ki (Disks large homolog 4 [3]): 74 µM | Ki (Disks large homolog 4 [1]): 38 µM | Ratio (Disks large homolog 4 [5]): 2 | Kd (Disks large homolog 4 [6]): 101 µM

CC(C)[C@H](NC(=O)c1cn([C@H](C(=O)O)C(C)C)nn1)C(=O)O
Ki (Disks large homolog 4 [1]): > 500 µM

Cc1c(C(=O)O)n(CCCC(=O)O)c2cc(C(=O)O)c(OCc3ccccc3)cc12
Ki (Disks large homolog 4 [3]): > 1000 µM | Ki (Disks large homolog 4 [1]): > 500 µM | inhibition (Disks large homolog 4 [4]): inactive | IC50 (Disks large homolog 4 [7]): 190 µM

CC(C)[C@H](NC(=O)[C@H](C)NC(=O)[C@@H](N)CO)C(=O)O (H-Ser-Ala-Val-OH)
Ki (Disks large homolog 4 [3]): 480 µM | Ki (Disks large homolog 4 [1]): 229 µM

Cc1c(C(=O)O)[nH]c2cc(C(=O)O)c(O)cc12
Ki (Disks large homolog 4 [3]): > 1000 µM | Ki (Disks large homolog 4 [1]): 530 µM | inhibition (Disks large homolog 4 [4]): inactive

Reference: ChEMBL document CHEMBL3797197, “Design and synthesis of triazole-based peptidomimetics of a PSD-95 PDZ domain inhibitor” (Medchemcomm, 2016)
